This note sets out measurements from ChEMBL document CHEMBL1136100, “4-Aminopiperidine derivatives as a new class of potent cognition enhancing drugs” (2003).

Format in all cases: functional
Experiment [1] is filed under the species Mus musculus. Put plainly: Cognition enhancing activity was evaluated by mouse passive-avoidance test using Scopolamine as amnesing drug after 2nd day.
Experiment [2] relates to Mus musculus. Put plainly: Cognition enhancing activity was evaluated by mouse passive-avoidance test using Scopolamine as amnesing drug administered intraperitoneally.
The species entered for experiment [3] is Mus musculus. Put plainly: Difference between entry latency of cognition enhancing activity between 2nd day and 1st day.
Experiment [4] is filed under the species Mus musculus. Put plainly: Cognition enhancing activity was evaluated by mouse passive-avoidance test using Scopolamine as amnesing drug after 1st day.

Molecules are shown by their SMILES.

Take `CC(=O)NC1CCN(S(=O)(=O)c2ccc(F)cc2)CC1`: the Entry latency worked out at 90.6 s in the experiment filed under Mus musculus [1], 76.1 s in the experiment filed under Mus musculus [3] and 14.5 s in the experiment listed under Mus musculus [4]. Further, the Min effective dose with Mus musculus [2] was found to be 0.01 mg/kg.
The corresponding values for `CCC(=O)NC1CCN(S(=O)(=O)C(C)C)CC1` are 102.8 s, 88.6 s, 14.2 s and 10 mg/kg.
`CCC(=O)N1CCC(NS(=O)(=O)C(C)C)CC1`: the Entry latency is listed as 96.9 s in the experiment listed under Mus musculus [1], 82.4 s in the experiment listed under Mus musculus [3] and 14.5 s in the experiment filed under Mus musculus [4]. For the same compound, the Min effective dose with Mus musculus [2] was 10 mg/kg.
Consider `CCC(=O)N1CCN(S(=O)(=O)c2ccc(F)cc2)CC1`, for which, in the experiment with Mus musculus [2], the Min effective dose worked out at 0.01 mg/kg.
On the same count and under the same terms, the result for `NC(=O)CN1CCCC1=O` reads 30 mg/kg.
For `CCC(=O)NC1CCN(S(=O)(=O)c2ccc(F)cc2)CC1`, the Entry latency in the experiment listed under Mus musculus [1] is recorded as 103.4 s; in the experiment filed under Mus musculus [3] it was 85.8 s; in the experiment listed under Mus musculus [4], 17.6 s. Also, the Min effective dose in the experiment with Mus musculus [2] was 0.1 mg/kg.
The matching figures for `CC(=O)NC1CCN(C(=O)c2ccccc2)CC1`: 113.5 s, 100.7 s, 12.8 s and 10 mg/kg.
The corresponding values for `CCC(=O)N1CCC(NC(=O)c2ccccc2)CC1` are 122.8 s, 103.1 s, 19.7 s and 0.1 mg/kg.
As for `CC(=O)N1CCN(S(=O)(=O)c2ccc(F)cc2)CC1`, in the experiment on Mus musculus [2], the Min effective dose came to 0.01 mg/kg.
For `CCC(=O)NC1CCN(C(=O)c2ccccc2)CC1`, the results for the Entry latency in the experiment filed under Mus musculus [1], in the experiment listed under Mus musculus [3] and in the experiment listed under Mus musculus [4] were 121 s, 103 s and 18 s, respectively. Further, the Min effective dose with Mus musculus [2] was determined as 0.1 mg/kg.
Take `CC(=O)N1CCN(C(=O)c2ccccc2)CC1`: in the experiment on Mus musculus [2], the Min effective dose worked out at 10 mg/kg.
For the compound `CN1[C@@H]2C[C@@H](OC(=O)[C@H](CO)c3ccccc3)C[C@H]1[C@@H]1O[C@@H]12` [SCOPOLAMINE], the Entry latency in the experiment filed under Mus musculus [1] was found to be 44.5 s; in the experiment filed under Mus musculus [3], 27.9 s. Moreover, the Min effective dose with Mus musculus [2] was found to be 1.5 mg/kg.
Take `CCC(=O)N1CCC(NS(=O)(=O)c2ccc(F)cc2)CC1`: the values for the Entry latency in the experiment filed under Mus musculus [1], in the experiment filed under Mus musculus [3] and in the experiment listed under Mus musculus [4] were 108.2 s, 103 s and 15.6 s, respectively. For the same compound, the Min effective dose in the experiment with Mus musculus [2] stood at 10 mg/kg.
The corresponding values for `CC(=O)N1CCC(NS(=O)(=O)C(C)C)CC1` are 99.3 s, 84.2 s, 15.1 s and 10 mg/kg.
Regarding `CCC(=O)N1CCN(C(=O)c2ccccc2)CC1`, in the experiment on Mus musculus [2], the Min effective dose was 0.01 mg/kg.
As to `CC(=O)NC1CCN(S(=O)(=O)C(C)C)CC1`, the Entry latency was determined as 89.7 s in the experiment listed under Mus musculus [1], 75.4 s in the experiment filed under Mus musculus [3] and 14.3 s in the experiment listed under Mus musculus [4]. Moreover, the Min effective dose in the experiment on Mus musculus [2] amounted to 1 mg/kg.
The corresponding values for `CC(=O)N1CCC(NS(=O)(=O)c2ccc(F)cc2)CC1` are 126.8 s, 92.6 s, 23.5 s and 0.1 mg/kg.
